Experimental data taken from patent publication US20230159509A1 (Amathus Therapeutics, Inc., priority 2020, published 2023).

Experiments:
[1] = system: primary rat dopaminergic TH-positive neurons; assay: ROS production and neurite network in primary rat dopaminergic TH-positive neurons injured with MPP+ or 6-OHDA; format: cell-based
[2] = biological target: T1, nanoLuc TRAP1 in SHSY5Y cells (Homo sapiens, UniProt Q12931); assay: NanoBRET in-cell target engagement assay; format: cell-based
T1 construct: expressed in transfected cells; host or cells: SHSY5Y cells, transient transfection with FuGENE HD
T1 sequence (Q12931 60-704): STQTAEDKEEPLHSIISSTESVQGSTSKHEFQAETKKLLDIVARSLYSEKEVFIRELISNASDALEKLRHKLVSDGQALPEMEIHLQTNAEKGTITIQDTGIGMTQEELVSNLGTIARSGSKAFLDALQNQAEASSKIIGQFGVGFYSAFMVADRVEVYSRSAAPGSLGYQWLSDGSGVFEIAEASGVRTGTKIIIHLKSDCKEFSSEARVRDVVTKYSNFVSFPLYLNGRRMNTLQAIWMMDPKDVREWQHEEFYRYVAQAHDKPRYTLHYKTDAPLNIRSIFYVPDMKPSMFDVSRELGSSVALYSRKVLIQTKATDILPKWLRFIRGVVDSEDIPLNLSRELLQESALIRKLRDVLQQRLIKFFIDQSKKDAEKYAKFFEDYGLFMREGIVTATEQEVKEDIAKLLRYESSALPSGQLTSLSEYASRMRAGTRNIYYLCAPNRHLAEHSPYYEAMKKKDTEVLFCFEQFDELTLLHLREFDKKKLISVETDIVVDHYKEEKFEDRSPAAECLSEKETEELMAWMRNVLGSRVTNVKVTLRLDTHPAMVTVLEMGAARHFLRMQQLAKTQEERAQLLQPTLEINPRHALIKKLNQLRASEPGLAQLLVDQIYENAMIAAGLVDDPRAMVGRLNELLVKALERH
Procedure: In-cell target engagement assays were performed as described in Robers M. B. et al. (2019) Quantitative, Real-Time Measurements of Intracellular Target Engagement Using Energy Transfer. In: Ziegler S., Waldmann H. (eds) Systems Chemical Biology. Methods in Molecular Biology, vol 1888. Humana Press, New York, N.Y.; Machleidt et al., ACS Chem. Biol. 2015, 10, 8, 1797-1804; or Vasta et al., Cell Chemical Biology 25, 206-214, Feb. 15, 2018; or as described herein.
Below is a protocol for transient transfection of SHSY5Y cells with NanoLuc® fusions. • 1. Cultivate SHSY5Y cells appropriately prior to assay in MEM w NEAA supplemented with 10% FBS. • 2. Remove medium from cell flask via aspiration, trypsinize, and allow cells to dissociate from the flask. • 3. Neutralize trypsin using growth medium and pellet cells via centrifugation at 200 g for 5 minutes. • 4. Aspirate medium and re-suspend cells into a single cell suspension using complete cell culture medium. • 5. Adjust the cell density to 300K/mL in cell culture medium in a sterile, conical tube. • 6. Prepare lipid:DNA complexes as follows (this covers two assay plates, adjust numbers for more plates) • a. Prepare a 10 μg/mL solution of DNA in Opti-MEM without serum. This solution should contain the following ratios of carrier DNA and DNA encoding NanoLuc® fusion. • i. 5.0 μg/mL of Transfection Carrier DNA (pGEM) • ii. […]

displacement of fluorescent nanoBRET tracer (probe-385) from nanoLuc TRAP1 ([2]; SHSY5Y cells, tracer titration, compound 20 PM, FIG. 13): displacement of the tracer
displacement of nanoBRET tracer (probe-385) from nanoLuc TRAP1, concentration response ([2]; live SHSY5Y cells, tracer 1 μM, FIG. 14): displacing the nanoBRET tracer molecule
Structure (SMILES): COc1ncc(NC(=O)c2csc(-c3ccccc3)n2)cc1S(=O)(=O)Nc1c(C)cccc1C [compound 1178]
neurite network of primary rat TH+ dopaminergic neurons ([1]; injured with MPP+ (4 μM, 24 h), FIG. 4): protection of the neurite network
neurite network of primary rat TH+ dopaminergic neurons ([1]; injured with MPP+ (4 μM, 48 h), FIG. 5): protection of neurite network
ROS production in primary rat dopaminergic neurons ([1]; injury with 6-OHDA (20 μM, 4 h), FIG. 8): reduction in ROS
ROS production in primary rat dopaminergic neurons ([1]; injury with MPP+ (4 μM, 4 h), FIG. 2): reduction of reactive oxygen species (ROS)
ROS production in rat primary mesencephalic culture ([1]; injury with MPP+ (4 μM, 4 h), FIG. 3): reduction ROS
